The test system of the test is P388 leukemia ip, CD2F1 mice, survival T/C. Briefly: NCI In Vivo Anticancer Drug Screen. Data for tumor model P388 Leukemia (intraperitoneal) in CD2F1 (CDF1) mice. As to conditions: endpoint: median survival time, higher = longer survival. The procedure, abridged:
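Mice carrying the transplanted tumor received test compound or vehicle. Survival was recorded in each group, and the value is the treated-group measurement divided by that of the vehicle-treated control group.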

Where [1] appears, read: dose: 100.0 mg/kg/injection, schedule: Q04DX003 (ip), vehicle: saline.
The mark [2] stands for this setting: dose: 50.0 mg/kg/injection, schedule: Q01DX009 (ip), vehicle: Klucel (hydroxypropylcellulose) (HPC).
[3] abbreviates: dose: 100.0 mg/kg/injection, schedule: Q01DX009 (ip), vehicle: Klucel (hydroxypropylcellulose) (HPC).
[4] abbreviates: dose: 25.0 mg/kg/injection, schedule: Q01DX005 (ip), vehicle: saline with Tween-80.
The mark [5] stands for this setting: dose: 50.0 mg/kg/injection, schedule: Q01DX005 (ip), vehicle: saline with Tween-80.
Setting [6] is: dose: 100.0 mg/kg/injection, schedule: Q01DX005 (ip), vehicle: saline with Tween-80.
Where [7] appears, read: dose: 200.0 mg/kg/injection, schedule: Q01DX005 (ip), vehicle: saline with Tween-80.
[8] abbreviates: dose: 25.0 mg/kg/injection, schedule: Q01DX009 (ip), vehicle: saline with Tween-80.
Where [9] appears, read: dose: 50.0 mg/kg/injection, schedule: Q01DX009 (ip), vehicle: saline with Tween-80.
[10] abbreviates: dose: 100.0 mg/kg/injection, schedule: Q01DX009 (ip), vehicle: saline with Tween-80.
The mark [11] stands for this setting: dose: 200.0 mg/kg/injection, schedule: Q01DX009 (ip), vehicle: saline with Tween-80.

Experimental findings from PubChem BioAssay AID330 (DTP/NCI, 2004) are described below.

The structures appear in SMILES notation. Several values for one entry are separate records, joined by “and”; a condition that tells them apart may be missing. Identical values can stand only once. Toxic doses and inconclusive results are not listed.

Consider `Cc1ccc(N2C(=O)CCSC2=S)cc1C`, for which the T/C was 108 % of control (dose: 50.0 mg/kg/injection, schedule: Q01DX009 (ip), vehicle: suspension in saline); 89 % of control (dose: 100.0 mg/kg/injection, schedule: Q01DX009 (ip), vehicle: suspension in saline); 99 % of control (dose: 200.0 mg/kg/injection, schedule: Q01DX009 (ip), vehicle: suspension in saline).
For `O=C(O)CCCCCCC(=O)CCl`, the T/C was 110 % of control (dose: 25.0 mg/kg/injection, schedule: Q04DX003 (ip), vehicle: saline); 110 % of control (dose: 50.0 mg/kg/injection, schedule: Q04DX003 (ip), vehicle: saline); 119 % of control (dose: 50.0 mg/kg/injection, schedule: Q04DX003 (ip), vehicle: suspension in saline); 121 % of control under setting [1]; 116 % of control (dose: 100.0 mg/kg/injection, schedule: Q04DX003 (ip), vehicle: suspension in saline).
Turning to `CCCCCC(=O)Nc1ncc([N+](=O)[O-])s1`, the T/C runs as follows: under setting [2], 116 % of control; under setting [3], 113 % of control; (dose: 200.0 mg/kg/injection, schedule: Q01DX009 (ip), vehicle: Klucel (hydroxypropylcellulose) (HPC)) 98 % of control.
Consider `N#CC#Cc1cccc(C#CC#N)c1`, for which the T/C is 110 % of control (dose: 6.25 mg/kg/injection, schedule: Q01DX001 (ip), vehicle: saline with Tween-80) and 100 % of control (dose: 12.5 mg/kg/injection, schedule: Q01DX001 (ip), vehicle: saline with Tween-80).
Regarding `C=C(C)CCP(=S)(OCC)OCC`, the T/C (dose: 60.0 mg/kg/injection, schedule: Q01DX005 (ip), vehicle: saline with Tween-80) is 102 % of control; the T/C (dose: 120.0 mg/kg/injection, schedule: Q01DX005 (ip), vehicle: saline with Tween-80) is 101 % of control; the T/C (dose: 240.0 mg/kg/injection, schedule: Q01DX005 (ip), vehicle: saline with Tween-80) is 100 % of control.
As for `Cl/N=N/c1nc(-c2ccccc2)[nH]c1-c1ccccc1`, the T/C by setting is: (dose: 50.0 mg/kg/injection, schedule: Q01DX001 (ip), vehicle: suspension in saline) 109 % of control; (dose: 100.0 mg/kg/injection, schedule: Q01DX001 (ip), vehicle: suspension in saline) 101 % of control; (dose: 200.0 mg/kg/injection, schedule: Q01DX001 (ip), vehicle: suspension in saline) 99 % of control.
Take `COC(=O)NC1(NC(=O)OC)NC(=O)c2cc(OC)c(OC)cc2N1`: the T/C is, setting by setting: under setting [4], 102 % of control; under setting [5], 99 % of control; under setting [6], 98 % of control; under setting [7], 118 % of control.
As to `COc1ccc(C(O)C2c3cc4c(cc3CCN2C)OCO4)c(CO)c1OC` (stereo unspecified), the T/C reads like this: (dose: 25.0 mg/kg/injection, schedule: Q01DX001 (ip), vehicle: saline + alcohol) 88 % of control; (dose: 50.0 mg/kg/injection, schedule: Q01DX001 (ip), vehicle: saline + alcohol) 95 % of control; (dose: 100.0 mg/kg/injection, schedule: Q01DX001 (ip), vehicle: saline + alcohol) 104 % of control.
As for `CC1(c2ccccc2)NC(=O)N(Sc2ccccc2)C1=O` (stereo unspecified), the T/C reads like this: (dose: 50.0 mg/kg/injection, schedule: Q01DX005 (ip), vehicle: Klucel (hydroxypropylcellulose) (HPC)) 111 % of control; (dose: 100.0 mg/kg/injection, schedule: Q01DX005 (ip), vehicle: Klucel (hydroxypropylcellulose) (HPC)) 113 % of control; (dose: 200.0 mg/kg/injection, schedule: Q01DX005 (ip), vehicle: Klucel (hydroxypropylcellulose) (HPC)) 107 % of control.
As for `C=CCc1ccccc1/C=N/NS(=O)(=O)c1ccc(C)cc1`, the T/C runs as follows: (dose: 100.0 mg/kg/injection, schedule: Q04DX002 (ip), vehicle: saline with Tween-80) 100 % of control; (dose: 200.0 mg/kg/injection, schedule: Q04DX002 (ip), vehicle: saline with Tween-80) 98 % of control; (dose: 400.0 mg/kg/injection, schedule: Q04DX002 (ip), vehicle: saline with Tween-80) 97 % of control.
As for `CC(=O)c1cc(C(=O)O)c(O)c2ccccc12`, the T/C is, setting by setting: under setting [2], 90 % of control; under setting [3], 92 % of control.
For `CC(=O)C(c1ccccc1)S(=O)(=O)c1ccc(C)cc1` (stereo unspecified), the T/C was 97 % of control under setting [4], 94 % of control under setting [5] and 87 % of control under setting [6].
`COC(=O)[C@H]1[C@H]2C[C@@H]3c4[nH]c5cc(OC)ccc5c4CCN3C[C@H]2C[C@@H](OC(=O)c2ccc(N)cc2)[C@@H]1OC`: the T/C reads like this: under setting [5], 97 % of control; under setting [6], 87 % of control; under setting [7], 94 % of control.
For the molecule `CC(C)C(NC(=O)[C@H](C(C)C)N1C(=O)c2ccccc2C1=O)C(=O)O` (stereo partly specified), the T/C is, setting by setting: under setting [5], 88 % of control; under setting [6], 96 % of control.
In the case of `COc1ccc(C(=O)Nc2ccccc2CCC2CCCCN2C)cc1` (stereo unspecified), the T/C reads like this: (dose: 6.25 mg/kg/injection, schedule: Q01DX009 (ip), vehicle: saline) 95 % of control; (dose: 12.5 mg/kg/injection, schedule: Q01DX009 (ip), vehicle: saline) 95 % of control; (dose: 25.0 mg/kg/injection, schedule: Q01DX009 (ip), vehicle: saline) 92 % of control; (dose: 25.0 mg/kg/injection, schedule: Q01DX009 (ip), vehicle: suspension in saline) 100 % of control.
With `OCC1OC(n2ncc3ccccc32)C(O)C1O` (stereo unspecified), the T/C was 97 % of control (dose: 6.25 mg/kg/injection, schedule: Q01DX009 (ip), vehicle: saline with Tween-80); 92 % of control (dose: 12.5 mg/kg/injection, schedule: Q01DX009 (ip), vehicle: saline with Tween-80); 106 % of control under setting [8]; 114 % of control and 90 % of control (dose: 32.0 mg/kg/injection, schedule: Q01DX002 (ip), vehicle: saline with Tween-80); 106 % of control under setting [9]; 106 % of control (dose: 64.0 mg/kg/injection, schedule: Q01DX002 (ip), vehicle: saline with Tween-80). The T/C reads like this: under setting [10], 100 % of control; (dose: 128.0 mg/kg/injection, schedule: Q01DX002 (ip), vehicle: saline with Tween-80) 112 % of control and 116 % of control.
As for `COc1cc(/C=C2/SC(=S)NC2=O)cc(OC)c1OC`, the T/C was 100 % of control under setting [8], 102 % of control under setting [9], 96 % of control under setting [10] and 96 % of control under setting [11].
Consider `Cc1ccc(S(=O)(=O)N/N=C/c2cc(I)cc([N+](=O)[O-])c2O)cc1`, for which the T/C reads like this: under setting [5], 95 % of control; under setting [6], 101 % of control; under setting [7], 100 % of control.
For `Cc1cc(=O)oc2c1cc(OCC(=O)OCCN1CCCCC1)c1occ(C)c12`, the T/C runs as follows: under setting [5], 99 % of control; under setting [6], 92 % of control; under setting [7], 93 % of control.
As for `Clc1ccc(CSCc2c(CSCc3ccc(Cl)cc3)c(CSCc3ccc(Cl)cc3)c(CSCc3ccc(Cl)cc3)c(CSCc3ccc(Cl)cc3)c2CSCc2ccc(Cl)cc2)cc1`, the T/C is 102 % of control under setting [9], 102 % of control under setting [10] and 99 % of control under setting [11].
On to `COc1cc2c(c(OC)c1OC)-c1ccc(SC)c(=O)cc1[C@@H](NC(=O)CO)CC2`, for which the T/C by setting is: (dose: 0.1 mg/kg/injection, schedule: Q01DX009 (ip), vehicle: other) 150 % of control; (dose: 0.2 mg/kg/injection, schedule: Q01DX009 (ip), vehicle: other) 157 % of control and 172 % of control.
As to `c1ccc2c(c1)Cc1nc3ccccc3nc1-2`, the T/C by setting is: under setting [10], 100 % of control; under setting [11], 95 % of control; (dose: 400.0 mg/kg/injection, schedule: Q01DX009 (ip), vehicle: saline with Tween-80) 100 % of control.
For `COc1ccc(N=Cc2c(O)ccc3c2oc2cc(Cl)c(O)c(Cl)c23)cc1`, the T/C (dose: 60.0 mg/kg/injection, schedule: Q01DX005 (ip), vehicle: Klucel (hydroxypropylcellulose) (HPC)) is 96 % of control; the T/C (dose: 120.0 mg/kg/injection, schedule: Q01DX005 (ip), vehicle: Klucel (hydroxypropylcellulose) (HPC)) was 93 % of control; the T/C (dose: 240.0 mg/kg/injection, schedule: Q01DX005 (ip), vehicle: Klucel (hydroxypropylcellulose) (HPC)) is 91 % of control.
For `Brc1ccc(C[N+]23CN4CN(CN(C4)C2)C3)cc1`, the T/C was 100 % of control under setting [9]; 120 % of control under setting [10]; 110 % of control under setting [1]; 110 % of control (dose: 200.0 mg/kg/injection, schedule: Q04DX003 (ip), vehicle: saline).
Turning to `CCOC(=O)c1cnc2ccccn2c1=O`, the T/C (dose: 50.0 mg/kg/injection, schedule: Q01DX009 (ip), vehicle: saline) was 90 % of control and the T/C (dose: 100.0 mg/kg/injection, schedule: Q01DX009 (ip), vehicle: saline) is 88 % of control.
